# Columns and labels:
# PTGER2 (EP2) = PTGER2 (EP2) (Homo sapiens (Human), UniProt P43116); test: hEP2 b-arrestin assay (PathHunter HEK 293 PTGER2 b-arrestin cells); assay type: cell-based; settings: antagonistic activity, beta-arrestin assay; read-out: hEP2 b-arr IC50
# Description: Plate is pre-incubated 15 minutes at 37° C. Then five microliters of PGE2 (final conc. 5 μM) are transferred into the assay plate. Plate is incubated 120 minutes at 37° C.
# (each concentration is measured in duplicate)
# EP2 = EP2 (Homo sapiens (Human), UniProt P43116); test: hEP2 cAMP assay (SF295 glioblastoma cells, HTRF cAMP); assay type: cell-based; settings: antagonistic activity
# In short: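 PGE2-driven cAMP accumulation was measured by HTRF in SF295 cells, which express endogenous EP2 only. Cells in assay buffer with 2 mM IBMX were pre-incubated 45 min at RT, then incubated 30 min at RT. Detection used competition between cellular cAMP and d2-cAMP for a cryptate anti-cAMP antibody.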
# EP4 = EP4 (Homo sapiens (Human), UniProt P35408); test: hEP4 cAMP assay (BT549 breast cancer cells, HTRF cAMP); assay type: cell-based; settings: antagonistic activity, PGE2 6 nM
# In short: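 BT549 breast cancer cells (endogenous EP4) in HBSS/20 mM HEPES/0.2% BSA/2 mM IBMX preincubated 45 min at RT with compound, then stimulated 30 min at RT with 6 nM PGE2 (final). cAMP read by competitive HTRF immunoassay, signal inversely proportional to cAMP.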
# PTGER4 (EP4) = PTGER4 (EP4) (Homo sapiens (Human), UniProt P35408)
# Chain of PTGER4 (EP4) (P35408 whole entry): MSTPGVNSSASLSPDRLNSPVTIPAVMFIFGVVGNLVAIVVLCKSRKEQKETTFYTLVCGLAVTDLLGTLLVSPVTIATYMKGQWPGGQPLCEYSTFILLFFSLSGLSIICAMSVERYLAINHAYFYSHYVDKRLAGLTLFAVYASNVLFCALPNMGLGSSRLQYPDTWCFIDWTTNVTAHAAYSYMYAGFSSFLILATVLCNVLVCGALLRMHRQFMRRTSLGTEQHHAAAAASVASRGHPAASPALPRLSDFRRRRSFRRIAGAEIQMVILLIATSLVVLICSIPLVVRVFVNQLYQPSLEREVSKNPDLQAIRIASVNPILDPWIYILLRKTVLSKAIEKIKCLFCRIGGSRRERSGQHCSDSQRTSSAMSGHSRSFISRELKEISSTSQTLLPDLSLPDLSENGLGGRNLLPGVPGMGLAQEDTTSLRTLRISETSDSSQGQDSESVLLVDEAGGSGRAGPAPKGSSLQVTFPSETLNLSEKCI
# Chain of PTGER2 (EP2) (P43116 whole entry): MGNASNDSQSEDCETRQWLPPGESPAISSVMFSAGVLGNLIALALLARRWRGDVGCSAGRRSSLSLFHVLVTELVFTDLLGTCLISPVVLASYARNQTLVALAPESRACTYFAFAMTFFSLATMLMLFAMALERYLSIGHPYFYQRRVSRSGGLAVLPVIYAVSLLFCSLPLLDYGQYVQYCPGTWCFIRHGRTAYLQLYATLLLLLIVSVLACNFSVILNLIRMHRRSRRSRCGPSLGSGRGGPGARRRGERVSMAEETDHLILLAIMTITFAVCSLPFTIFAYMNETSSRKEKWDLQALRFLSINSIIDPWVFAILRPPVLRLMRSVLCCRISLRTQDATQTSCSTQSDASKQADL
# Chain of EP2 (P43116 whole entry): as above
# Chain of EP4 (P35408 whole entry): as the sequence (P35408 whole entry) above
SMILES,IC50 (PTGER2 (EP2)),IC50 (EP2),IC50 (EP4),IC50 (PTGER4 (EP4)),IC50 (EP4; BT549 cells)
CSc1cc(-c2cc(NCCc3c(C#N)cc4ccccc4c3C)ncn2)ccc1C(=O)O [Ex 52],318 nM,158 nM,25 nM,63 nM,–
CSc1cc(-c2cc(NCCc3ccc4c(c3)CCS4)ncn2)ccc1C(=O)O [Ex 138],74 nM,61 nM,120 nM,358 nM,–
CSc1cc(-c2cc(NCCc3ccc4cccc(F)c4c3)ncn2)ccc1C(=O)O [Ex 243],493 nM,2100 nM,355 nM,147 nM,–
CCOc1cc2ccccc2cc1CCNc1cc(-c2ccc(C(=O)O)c(OC3CCC3)c2)ncn1 [Ex 171],83 nM,120 nM,181 nM,62 nM,–
CSc1cc(-c2cc(NCCc3c(F)cc4ccccc4c3F)ncn2)ccc1CC(=O)O [Ex 270],1520 nM,5660 nM,435 nM,404 nM,–
COc1cc2c(cc1CCNc1cc(-c3ccc(C(=O)O)c(OC4CCC4)c3)ncn1)OCCO2 [Ex 187],74 nM,64 nM,206 nM,144 nM,–
COc1cc2ccccc2c(C)c1CCNc1cc(-c2ccc(CC(=O)O)c(SC)c2)ncn1 [Ex 163],85 nM,246 nM,158 nM,98 nM,–
COc1cc2c(cc1CCNc1cc(-c3ccc(CC(=O)O)c(SC)c3)ncn1)OCCO2 [Ex 197],127 nM,176 nM,224 nM,300 nM,–
CCOc1cc(-c2cc(NCCc3cc4ccccc4c(F)c3OC)ncn2)ccc1C(=O)O [Ex 174],409 nM,269 nM,90 nM,88 nM,–
COc1cc2ccccc2c(C)c1CCNc1cc(-c2ccc(C(=O)O)c(OC3CCC3)c2)ncn1 [Ex 79],43 nM,83 nM,44 nM,56 nM,–
COc1c(CCNc2cc(-c3cc(F)c(C(=O)O)c(OC4CCC4)c3)ncn2)c(F)c(F)c2cc(C)oc12 [Ex 262],1300 nM,855 nM,424 nM,186 nM,–
CSc1cc(-c2cc(NCCc3cc4c(cc3C#N)OCCO4)ncn2)ccc1C(=O)O [Ex 97],192 nM,78 nM,63 nM,147 nM,–
CSc1cc(-c2cc(NCCc3ccc4scc(C#N)c4c3)ncn2)ccc1C(=O)O [Ex 212],255 nM,50 nM,253 nM,340 nM,–
CSc1cc(-c2cc(NCCc3ccc4sccc4c3C)ncn2)ccc1CC(=O)O [Ex 326],126 nM,160 nM,910 nM,1070 nM,–
CCOc1cc(-c2cc(NCCc3cc4c(cc3OC)OCCO4)ncn2)ccc1OCC(=O)O [Ex 120],114 nM,111 nM,92 nM,61 nM,–
CSc1cc(-c2cc(NCCc3ccc4scnc4c3)ncn2)ccc1C(=O)O [Ex 237],388 nM,160 nM,335 nM,908 nM,–
COc1cc2ccccc2c(F)c1CCNc1cc(-c2ccc(C(=O)O)c(OC3CCC3)c2)ncn1 [Ex 25],96 nM,98 nM,22 nM,16 nM,–
N#Cc1csc2ccc(CCNc3cc(-c4ccc(C(=O)O)c(OC5CCC5)c4)ncn3)cc12 [Ex 273],289 nM,140 nM,455 nM,221 nM,–
CCOc1cc(-c2cc(NCCc3c(C#N)cc4ccccc4c3F)ncn2)ccc1C(=O)O [Ex 73],809 nM,1770 nM,39 nM,91 nM,–
COc1cc2ccccc2c(F)c1CCNc1cc(-c2ccc(CC(=O)O)c(SC)c2)ncn1 [Ex 115],243 nM,682 nM,85 nM,53 nM,–
COc1cc2c(cc1CCNc1cc(-c3ccc(C(=O)O)c(CC(C)C)c3)ncn1)OCCO2 [Example 416],245 nM,123 nM,–,82 nM,83 nM
COc1cc2ccccc2c(F)c1CCNc1cc(-c2ccc(C(=O)O)c(SC)c2)ncn1 [Ex 29],53 nM,52 nM,17 nM,33 nM,–

# The next lines start with results.
IC50 (PTGER2 (EP2)),IC50 (EP2),IC50 (EP4),IC50 (PTGER4 (EP4)),SMILES,IC50 (EP4; BT549 cells)
113 nM,79 nM,1 nM,3 nM,CCOc1cc(-c2cc(NCCc3c(C#N)cc4ccccc4c3C)ncn2)sc1C(=O)O [Ex 2],–
832 nM,248 nM,249 nM,143 nM,CCOc1cc(-c2cc(NCCc3ccc4scc(C#N)c4c3)ncn2)ccc1CC(=O)O [Ex 209],–
258 nM,115 nM,137 nM,361 nM,CCOc1cc(-c2cc(NCCc3ccc4ncoc4c3)ncn2)sc1C(=O)O [Ex 146],–
438 nM,222 nM,38 nM,59 nM,CCOc1cc(-c2cc(NCCc3ccc4ncccc4c3F)ncn2)sc1C(=O)O [Ex 69],–
11 nM,37 nM,4 nM,6 nM,CCOc1cc(-c2cc(NCCc3cc4c(cc3C#N)OCCO4)ncn2)sc1C(=O)O [Ex 6],–
30 nM,54 nM,188 nM,164 nM,CCOc1cc(-c2cc(NCCc3cc4c(Cl)ccnc4cc3C)ncn2)sc1C(=O)O [Ex 178],–
75 nM,19 nM,17 nM,16 nM,CCOc1cc(-c2cc(NCCc3ccc4scc(C#N)c4c3)ncn2)sc1C(=O)O [Ex 27],–
25 nM,28 nM,33 nM,41 nM,CCOc1cc(-c2cc(NCCc3cc4c(cc3C#N)OCO4)ncn2)sc1C(=O)O [Ex 64],–
54 nM,43 nM,21 nM,44 nM,CCOc1cc(-c2cc(NCCc3c(F)cc4ncccc4c3F)ncn2)sc1C(=O)O [Ex 43],–
222 nM,222 nM,85 nM,640 nM,CCOc1cc(-c2cc(NCCc3ccc4c(c3)CCO4)ncn2)sc1C(=O)O [Ex 114],–
148 nM,57 nM,61 nM,92 nM,CCOc1cc(-c2cc(NCCc3ccc4sccc4c3)nc(C)n2)sc1C(=O)O [Ex 96],–
423 nM,528 nM,59 nM,49 nM,CCOc1cc(-c2cc(NCCc3cc(F)c4cc(C)sc4c3OC)ncn2)sc1C(=O)O [Ex 94],–
47 nM,25 nM,43 nM,154 nM,CSc1cc(-c2cc(NCCc3cc4ccsc4cc3C#N)ncn2)ccc1C(=O)O [Ex 77],–
359 nM,194 nM,18 nM,23 nM,CCOc1cc(-c2cc(NCCc3cc(F)c4c(c3)OCCO4)ncn2)sc1C(=O)O [Ex 35],–
107 nM,64 nM,53 nM,59 nM,CCOc1cc(-c2cc(NCCc3ccc4scnc4c3)ncn2)sc1C(=O)O [Ex 88],–
6 nM,8 nM,1 nM,2 nM,CCOc1cc(-c2cc(NCCc3c(OC)cc4ccccc4c3C)ncn2)sc1C(=O)O [Ex 1],–
100 nM,268 nM,3 nM,12 nM,CCOc1cc(-c2cc(NCCc3c(F)cc4ccccc4c3F)ncn2)sc1C(=O)O [Ex 335],–
173 nM,134 nM,51 nM,85 nM,CCOc1cc(-c2cc(NCCc3cc4cccnc4c(C)c3Cl)ncn2)sc1C(=O)O [Ex 87],–
84 nM,61 nM,173 nM,260 nM,COc1cc2sccc2cc1CCNc1cc(-c2ccc(CC(=O)O)c(SC)c2)ncn1 [Ex 224],–
269 nM,149 nM,163 nM,93 nM,CCOc1cc(-c2cc(NCCc3ccc4c(c3)COC4)ncn2)sc1C(=O)O [Ex 164],–
521 nM,158 nM,373 nM,671 nM,CCOc1cc(-c2cc(NCCc3ccc4scc(C#N)c4c3)ncn2)ccc1C(=O)O [Ex 253],–
15 nM,19 nM,14 nM,3 nM,CCOc1cc2ccccc2cc1CCNc1cc(-c2cc(OCC)c(C(=O)O)s2)ncn1 [Ex 23],–
53 nM,61 nM,88 nM,131 nM,CCOc1cc(-c2cc(NCCc3cc4cccnc4c(F)c3Cl)ncn2)sc1C(=O)O [Ex 117],–
34 nM,61 nM,583 nM,1600 nM,CCOc1cc(-c2cc(NCCc3ccc4sccc4c3C)ncn2)ccc1C(=O)O [Ex 296],–
17 nM,37 nM,45 nM,32 nM,CCOc1cc(-c2cc(NCCc3cc4ccsc4cc3OC)ncn2)ccc1OCC(=O)O [Ex 80],–
108 nM,171 nM,9 nM,8 nM,C#Cc1c(CCNc2cc(-c3cc(OCC)c(C(=O)O)s3)ncn2)ccc2ccccc12 [Ex 17],–
34 nM,12 nM,78 nM,101 nM,CCOc1cc(-c2cc(NCCc3cc4ccsc4cc3OC)ncn2)ccc1C(=O)O [Ex 109],–

# — patent US11839613B2, “Pyrimidine derivatives as PGE2 receptor modulators” (IDORSIA PHARMACEUTICALS LTD, priority 2017, dated 2023)
